Test results from patent US5985894A, “N-substituted quinolines” (Hoechst Marion Roussel, priority 1991, dated 1999).

Legend:
Angiotensin II Receptor = biological target: T1, Angiotensin II Receptor (Rattus norvegicus, UniProt P25095); assay: Test on the Angiotensin II Receptor (displacement of 125I angiotensin II, rat liver membranes); type: binding; conditions: pH 7.4, 25° C., 150 minutes
T1 construct: A fresh membrane preparation obtained from the liver of a rat was used; from tissue; host or cells: rat liver, fresh membrane preparation
T1 sequence (P25095 1-359): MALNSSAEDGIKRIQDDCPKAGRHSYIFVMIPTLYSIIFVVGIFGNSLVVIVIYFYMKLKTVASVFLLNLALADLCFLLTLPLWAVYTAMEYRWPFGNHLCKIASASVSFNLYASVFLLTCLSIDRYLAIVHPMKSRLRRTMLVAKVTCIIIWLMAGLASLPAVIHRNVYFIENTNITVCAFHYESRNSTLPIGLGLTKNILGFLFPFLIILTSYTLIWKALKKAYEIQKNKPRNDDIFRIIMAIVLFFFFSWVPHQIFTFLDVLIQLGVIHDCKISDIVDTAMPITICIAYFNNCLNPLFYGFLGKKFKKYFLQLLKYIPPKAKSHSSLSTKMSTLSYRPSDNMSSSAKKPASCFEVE
Procedure: 1) Test on the Angiotensin II Receptor
A fresh membrane preparation obtained from the liver of a rat was used and the tissue was ground up in a polytron in a Tris 50 mM pH 7.4 buffer. After being ground up, the tissue was centrifuged 3 times at 30,000 g for 15 minutes with intermediate taking up of the deposits in the Tris pH 7.4 buffer. The last deposits were suspended in a pH 7.4 incubation buffer (Tris 20 mM, NaCl 135 mM, KCl 10 mM, glucose 5 mM, MgCl2 10 mM, phenyl methyl sulfonyl fluoride 0.3 mM, bacitracine 0.1 mM (0.2% bovine albumin serum). 2 ml aliquoted fractions were divided into hemolysis tubes and ^125 I angiotensin II (25,000 DPM/tube) and the product to be studied were added. The product has first tested at 3×10^-5 M in triplicate. When the test product displaced more than 50% of the radioactivity linked specifically to the receptor, it was tested again according to a range of 7 concentrations to determine the concentration that inhibited the radioactivity linked specifically to the receptor by 50%. In this way, the 50% inhibiting concentration was determined.
The non-specific bond was determined by the addition of the product of Example 94 of the European Patent No. 0,253,310 at 10^-5 M (in triplicate). The deposit was incubated at 25° C. for 150 minutes, put back in a water bath at 0° C. for 5 minutes, filtered under vacuum, rinsed with Tris pH 7.4 buffer and the radioactivity was counted in the presence of scintillating Triton. The results were expressed directly as a 50% inhibiting concentration (IC50), that is to say as a concentration of product studied, expressed in nM, necessary to displace 50% of the specific radioactivity fixed on the receptor studied.

[1] = tested on: angiotensin II on the isolated portal vein; assay: Antagonistic activity of angiotensin II on the isolated portal vein; type: cell-based, male Wistar rats; conditions: isolated rat portal vein, angiotensin II 3.10^-8 M, compound 15 minutes before; read-out: IC50 (50% inhibition of the response to angiotensin)
Procedure: The portal vein was removed from male Wistar rats weighing about 350 g (IFFA Credo France) after cervical dislocation, and put rapidly into a physiological solution (see below) at ambient temperature. A ring of about 1 mm was mounted in a bath with an isolated element containing 20 ml of the following physiological solution (composition in mM: NaCl 118.3-KCl 4.7-MgSO4 1.2-KH2 PO4 1.2-NaHCO3 25-glucose 11.1-CaCl2 2.5). The medium was maintained at 37° C. and oxygenated with a mixture of O2 95%, CO2 5%. The initial pressure imposed was 1 g and the rings were left at rest for 60 to 90 minutes. To avoid spontaneous contractions, verapamil was added to the incubation bath (1.10^-6 M). At the end of the rest period, angiotensin II (Ciba hypertensis) 3.10^-8 M were added to the incubation bath and left in contact with the preparation for one minute. This operation was repeated every 30 minutes with the tissue being washed 3 or 4 times between two stimulations with angiotensin. The compound to be studied was introduced into the bath 15 minutes before a new stimulation with angiotensin. As increasing concentrations of the molecule were used, an IC50 (concentration that produced a 50% inhibition of the response to angiotensin) was calculated, expressed in nanomoles.

angiotensin II = assay: Test for antagonistic activity of angiotensin II on a demedullated rat; type: in vivo, Male Sprague-Dawley rats; conditions: iv, 5 min, pressure effect of angiotensin II 0.75 micrograms/kg, compound injected (jugular vein) 5 minutes before, read-out: 50% inhibiting dose
Procedure: 3) Test for Antagonistic Activity of Angiotensin II on a Demedullated Rat
Male Sprague-Dawley rats weighing 250 to 350 g were anaesthetized by an intraperitoneal injection of sodium pentobarbital (60 mg/kg). The diastolic arterial pressure was recorded using a heparinated catheter (PE50) introduced into the left carotid of the animal, and connected to a pressure calculator (Gould, Pressure Processor) by a Gould pressure sensor. A catheter was introduced into the right jugular vein of the animal for the injection of the molecules to be studied. The animal was placed under assisted respiration and a bilateral section of the pneumogastric nerves was carried out. The rat was then demedullated. After a sufficient period of stabilization, the study of the antagonism of the compounds vis-a-vis angiotensin II (Ciba Hypertensin) was carried out in the following manner.
1--Three consecutive injections of angiotensin II (0.75 micrograms/kg) spaced out over 15 minutes allowed a reproducible and stable pressure response to be obtained.
2--While keeping a time period of 15 minutes for the administration of angiotensin II, the molecules to be studied were injected 5 minutes before angiotensin II.
The pressure effects of angiotensin II in the presence of the antagonist were expressed as a percentage of the pressure effects of angiotensin II administered on its own. The 50% inhibiting dose of the effect studied was determined. Each animal was considered as its own control and the results are in the following Table

[2] = Passive avoidance test (scopolamine amnesia); type: in vivo, Male mice (CD1 Charles River); conditions: s.c., 24 hours after treatment

Row | Compound | IC50 (Angiotensin II Receptor) | IC50 [1] | ED50 (angiotensin II) | PERCENTAGE OF INCREASE IN THE LATENCY TIME RELATIVE TO THE CONTROLS ([2]; dose 10 μg/kg) | PERCENTAGE OF INCREASE IN THE LATENCY TIME RELATIVE TO THE CONTROLS ([2]; dose 25 μg/kg) | PERCENTAGE OF INCREASE IN THE LATENCY TIME RELATIVE TO THE CONTROLS ([2]; dose 100 μg/kg) | PERCENTAGE OF INCREASE IN THE LATENCY TIME RELATIVE TO THE CONTROLS ([2]; dose 250 μg/kg) | PERCENTAGE OF INCREASE IN THE LATENCY TIME RELATIVE TO THE CONTROLS ([2]; dose 1000 μg/kg) | PERCENTAGE OF INCREASE IN THE LATENCY TIME RELATIVE TO THE CONTROLS ([2]; dose 0.1 μg/kg) | PERCENTAGE OF INCREASE IN THE LATENCY TIME RELATIVE TO THE CONTROLS ([2]; dose 0.25 μg/kg) | PERCENTAGE OF INCREASE IN THE LATENCY TIME RELATIVE TO THE CONTROLS ([2]; dose 1 μg/kg) | PERCENTAGE OF INCREASE IN THE LATENCY TIME RELATIVE TO THE CONTROLS ([2]; dose 2.5 μg/kg)
1 | CCCCc1cn(Cc2ccc(-c3ccccc3C(=O)O)cc2)c2ccccc2c1=S [Example 6] | 400 nM | 66 nM | 6.65 mg/kg | – | – | – | – | – | – | – | – | –
2 | CCCCc1cn(Cc2ccc(-c3ccccc3C(=O)O)cc2)c2c(Br)cccc2c1=O [Example 18, 4'-[(3-butyl-1,4-dihydro-8-bromo-4-oxo-1-quinolinyl)-methyl](1,1'-biphenyl)2-carboxylic acid] | 74 nM | – | 3.9 mg/kg | – | – | – | – | – | – | – | – | –
3 | CCCCc1cn(Cc2ccc(-c3ccccc3C(=O)O)cc2)c2c(c1=O)CCCC2 [Example 22, 4'-[(3-butyl-1,4,5,6,7,8-hexahydro-4-oxo-1-quinolinyl)-methyl](1,1'-biphenyl)-2-carboxylic acid] | 90 nM | – | 1 mg/kg | 8% | 26% | 66% | 128% | 127% | – | – | – | –
4 | CCCCc1cn(Cc2ccc(-c3ccccc3C(=O)O)cc2)c2cc(C(=O)N3CCCC3)ccc2c1=O [Example 16] | 79 nM | 31.7 nM | 1.2 mg/kg | – | – | – | – | – | – | – | – | –
5 | CCCCc1cn(Cc2ccc(-c3ccccc3C(=O)O)cc2)c2cc(CC(=O)O)ccc2c1=O [Example 50] | – | – | 0.61 mg/kg | 190% | 225% | 149% | – | – | 20% | 31% | 84% | 93%
6 | CCCCc1cn(Cc2ccc(-c3ccccc3-c3nn[nH]n3)cc2)c2cc(C(=O)N3CCCC3)ccc2c1=O [Example 52] | 8.7 nM | – | 0.23 mg/kg | – | – | – | – | – | – | – | – | –
7 | CCCCc1cn(Cc2ccc(-c3ccccc3C(=O)O)cc2)c2c(C(=O)O)cccc2c1=O [Example 30] | 54 nM | – | 0.21 mg/kg | 37% | 65% | 91% | 144% | 126% | – | – | 23% | –
8 | CCCCc1cn(Cc2ccc(-c3ccccc3C(=O)O)cc2)c2cc(CCC(=O)O)ccc2c1=O [Example 38] | – | – | – | 118% | 132% | 131% | 101% | 158% | 1% | – | 57% | –
9 | CCCCc1cn(Cc2ccc(-c3ccccc3C(=O)O)cc2)c2cc(C(=O)O)ccc2c1=O [Example 10, 3-butyl-1-[[2'-carboxy-(1,1'-biphenyl)-4-yl]-methyl]-1,4-dihydro-4-oxo-7-quinoline carboxylic acid] | 92 nM | 31 nM | 1.27 mg/kg | – | – | – | – | – | – | – | – | –
10 | CCCCc1cn(Cc2ccccc2CC(=O)O)c2ccccc2c1=O [Example 56] | – | – | – | 24% | 49% | 98% | 105% | 122% | – | – | – | –
11 | CCCCc1cn(Cc2ccc(-c3ccccc3C(=O)O)cc2)c2ccc(C)cc2c1=O [Example 58] | – | – | – | 112% | 110% | 129% | – | – | 3% | – | 29% | –
12 | CCCCc1cn(Cc2ccc(-c3ccccc3C(=O)O)cc2)c2ccccc2c1=O [Example 4, 4'-[(3-butyl-1,4-dihydro-4-oxo-1-quinolinyl)-methyl](1,1'-biphenyl)-2-carboxylic acid] | 180 nM | 96.5 nM | 7.55 mg/kg | – | – | – | – | – | – | – | – | –
13 | CCCCc1cn(Cc2ccc(-c3ccccc3C(=O)O)cc2)c2cc(CO)ccc2c1=O [Example 12] | – | 49 nM | 3.76 mg/kg | – | – | – | – | – | – | – | – | –
